Laboratory results taken from patent US9340510B2, “Tetrahydroisoquinoline derivatives, pharmaceutical compositions and uses thereof” (Boehringer Ingelheim International GmbH, priority 2014, dated 2016).

Target: human ACC2 (Homo sapiens (Human), UniProt O00763)
Assay: ACC2 assay: spectrophotometric 384 well assay (coupled lactate dehydrogenase/pyruvate kinase)
Type: biochemical
Details: hACC2 construct lacking the 128 N-terminal amino acids, 25° C., 340 nm
In short: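 N-terminally truncated human ACC2 from insect cells; ADP formation coupled via pyruvate kinase/lactate dehydrogenase, NADH loss read at 340 nm over 15 min at 25 °C, pH 7.5. Started with NADH, acetyl-CoA and 500 µM ATP; 1% DMSO. IC50 by nonlinear fit of background-subtracted slopes.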

human ACC2, sequence (O00763 129-2458): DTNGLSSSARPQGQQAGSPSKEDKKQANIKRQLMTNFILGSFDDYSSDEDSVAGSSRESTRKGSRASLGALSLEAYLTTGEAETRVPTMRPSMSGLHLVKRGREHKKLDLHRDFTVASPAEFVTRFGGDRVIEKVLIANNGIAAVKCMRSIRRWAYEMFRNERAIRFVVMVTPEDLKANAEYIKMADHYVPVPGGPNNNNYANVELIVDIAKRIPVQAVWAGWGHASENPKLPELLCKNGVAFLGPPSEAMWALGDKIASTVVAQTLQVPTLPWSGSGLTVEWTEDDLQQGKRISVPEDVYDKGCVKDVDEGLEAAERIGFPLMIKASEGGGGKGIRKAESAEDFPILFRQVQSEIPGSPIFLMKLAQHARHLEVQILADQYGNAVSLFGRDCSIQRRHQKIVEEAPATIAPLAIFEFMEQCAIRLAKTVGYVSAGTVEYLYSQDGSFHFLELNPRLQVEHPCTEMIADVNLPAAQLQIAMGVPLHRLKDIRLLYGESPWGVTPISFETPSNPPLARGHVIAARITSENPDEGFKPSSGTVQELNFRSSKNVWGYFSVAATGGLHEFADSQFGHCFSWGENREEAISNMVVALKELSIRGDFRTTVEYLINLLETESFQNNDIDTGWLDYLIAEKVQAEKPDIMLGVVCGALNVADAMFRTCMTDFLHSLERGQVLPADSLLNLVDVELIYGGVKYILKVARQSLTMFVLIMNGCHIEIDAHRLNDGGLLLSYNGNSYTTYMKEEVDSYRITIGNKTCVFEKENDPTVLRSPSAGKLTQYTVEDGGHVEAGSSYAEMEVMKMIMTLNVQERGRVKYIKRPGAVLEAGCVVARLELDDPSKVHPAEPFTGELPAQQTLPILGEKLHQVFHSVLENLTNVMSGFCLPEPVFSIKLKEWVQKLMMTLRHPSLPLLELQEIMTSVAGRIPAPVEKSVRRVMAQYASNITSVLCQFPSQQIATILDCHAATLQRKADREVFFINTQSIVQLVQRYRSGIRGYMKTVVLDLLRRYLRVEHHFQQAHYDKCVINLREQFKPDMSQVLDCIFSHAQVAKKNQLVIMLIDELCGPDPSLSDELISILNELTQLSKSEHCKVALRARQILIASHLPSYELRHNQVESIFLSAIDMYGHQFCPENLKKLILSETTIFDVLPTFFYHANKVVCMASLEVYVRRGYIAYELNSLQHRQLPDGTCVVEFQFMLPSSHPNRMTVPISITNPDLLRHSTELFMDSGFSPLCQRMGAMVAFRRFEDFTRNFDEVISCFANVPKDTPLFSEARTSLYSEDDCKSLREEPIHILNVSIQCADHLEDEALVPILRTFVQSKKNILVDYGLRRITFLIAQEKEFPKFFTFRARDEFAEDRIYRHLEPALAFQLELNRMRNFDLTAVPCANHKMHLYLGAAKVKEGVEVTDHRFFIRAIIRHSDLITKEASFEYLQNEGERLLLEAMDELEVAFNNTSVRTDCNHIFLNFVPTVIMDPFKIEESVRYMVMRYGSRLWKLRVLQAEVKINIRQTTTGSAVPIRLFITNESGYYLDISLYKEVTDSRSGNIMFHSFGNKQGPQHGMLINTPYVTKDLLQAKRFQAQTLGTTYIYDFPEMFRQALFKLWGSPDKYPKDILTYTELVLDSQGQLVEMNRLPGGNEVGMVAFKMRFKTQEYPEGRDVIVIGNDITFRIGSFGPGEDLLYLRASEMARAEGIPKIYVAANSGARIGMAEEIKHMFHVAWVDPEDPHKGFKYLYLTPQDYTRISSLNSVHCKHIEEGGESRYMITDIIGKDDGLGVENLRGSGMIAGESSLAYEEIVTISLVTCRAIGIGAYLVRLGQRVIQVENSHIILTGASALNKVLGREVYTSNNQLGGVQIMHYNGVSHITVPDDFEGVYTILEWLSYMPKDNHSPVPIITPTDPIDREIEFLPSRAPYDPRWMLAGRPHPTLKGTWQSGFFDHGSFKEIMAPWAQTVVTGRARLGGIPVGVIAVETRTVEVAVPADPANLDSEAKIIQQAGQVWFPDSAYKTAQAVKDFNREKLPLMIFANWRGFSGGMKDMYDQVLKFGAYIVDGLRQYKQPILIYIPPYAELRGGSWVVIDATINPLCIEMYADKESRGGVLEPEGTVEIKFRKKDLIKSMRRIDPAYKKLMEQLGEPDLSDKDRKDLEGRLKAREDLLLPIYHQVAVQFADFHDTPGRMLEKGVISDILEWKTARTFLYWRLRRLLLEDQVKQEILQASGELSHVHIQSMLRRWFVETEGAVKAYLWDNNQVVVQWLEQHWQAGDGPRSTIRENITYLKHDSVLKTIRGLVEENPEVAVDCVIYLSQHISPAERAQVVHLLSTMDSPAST

Structure (SMILES)	IC50 [nM]
C[C@H](NC(=O)c1cncs1)c1ccc(CN2Cc3ccc(OCC4CC4)cc3C(F)C2)cc1 (stereo partly shown) [Example 3.048]	59
C[C@H](NC(=O)[C@H]1C[C@H](F)C1)c1ccc(CN2Cc3ccc(OCC4CC4)cc3C(O)C2)cc1 (stereo partly shown) [Example 3.049]	448
C[C@H](NC(=O)[C@@H]1CC[C@H](NC(=O)OC(C)(C)C)C1)c1ccc(CN2Cc3ccc(OCC4CC4)cc3C(F)C2)cc1 (stereo partly shown) [Example 3.050]	306
C[C@H](NC(=O)CC#N)c1ccc(CN2Cc3ccc(OCC4CC4)cc3C(O)C2)cc1 (stereo partly shown) [Example 3.051]	604
C[C@H](NC(=O)[C@@H]1CCC(=O)N1)c1ccc(CN2Cc3ccc(OCC4CC4)cc3C(F)C2)cc1 (stereo partly shown) [Example 3.052]	153
C[C@H](NC(=O)[C@H]1CCC(=O)N1)c1ccc(CN2Cc3ccc(OCC4CC4)cc3C(F)C2)cc1 (stereo partly shown) [Example 3.053]	213
C[C@H](NC(=O)C1CCC(=O)O1)c1ccc(CN2Cc3ccc(OCC4CC4)cc3C(F)C2)cc1 (stereo partly shown) [Example 3.054]	245
C[C@H](NC(=O)C1(N)CC1)c1ccc(CN2Cc3ccc(OCC4CC4)cc3C(F)C2)cc1 (stereo partly shown) [Example 3.055]	55
C[C@H](NC(=O)C1CCC[C@@H]1N)c1ccc(CN2Cc3ccc(OCC4CC4)cc3C(F)C2)cc1 (stereo partly shown) [Example 3.056]	886
C[C@H](NC(=O)C1COCCN1)c1ccc(CN2Cc3ccc(OCC4CC4)cc3C(F)C2)cc1 (stereo partly shown) [Example 3.057]	357
C[C@H](NC(=O)CN)c1ccc(CN2Cc3ccc(OCC4CC4)cc3C(F)C2)cc1 (stereo partly shown) [Example 3.058]	266
C[C@H](NC(=O)CO)c1ccc(CN2Cc3ccc(OCC4CC4)cc3C(F)C2)cc1 (stereo partly shown) [Example 3.059]	47
C[C@H](O)C(=O)N[C@@H](C)c1ccc(CN2Cc3ccc(OCC4CC4)cc3C(F)C2)cc1 (stereo partly shown) [Example 3.060]	132
C[C@H](NC(=O)[C@@H](C)O)c1ccc(CN2Cc3ccc(OCC4CC4)cc3C(F)C2)cc1 (stereo partly shown) [Example 3.061]	90
C[C@H](NC(=O)C1(O)CC1)c1ccc(CN2Cc3ccc(OCC4CC4)cc3C(F)C2)cc1 (stereo partly shown) [Example 3.062]	102
C[C@H](NC(=O)c1cn[nH]c1)c1ccc(CN2Cc3ccc(OCC4CC4)cc3C(O)C2)cc1 (stereo partly shown) [Example 3.063]	266
C[C@H](NC(=O)c1cn[nH]c1)c1ccc(CN2Cc3ccc(OCC4CC4)cc3C(F)C2)cc1 (stereo partly shown) [Example 3.064]	52
CCC(=O)N[C@@H](C)c1ccc(CN2CCc3cc(OCC4CC4(F)F)ccc3C2)cc1 (stereo partly drawn) [Example 4.001, N—((S)-1-{4-[6-(2,2-Difluoro-cyclopropylmethoxy)-3,4-dihydro-1H-isoquinolin-2-ylmethyl]-phenyl}-ethyl)-propionamide]	37
C[C@H](NC(=O)C(F)(F)F)c1ccc(CN2CCc3cc(OCC4CC4(F)F)ccc3C2)cc1 (stereo partly shown) [Example 4.002]	53
C[C@H](NC(=O)C(F)F)c1ccc(CN2CCc3cc(OCC4CC4(F)F)ccc3C2)cc1 (stereo partly shown) [Example 4.003]	25
CCNC(=O)N[C@@H](C)c1ccc(CN2CCc3cc(OCC4CC4(F)F)ccc3C2)cc1 (stereo partly drawn) [Example 5.001, 1-((S)-1-{4-[6-(2,2-Difluoro-cyclopropylmethoxy)-3,4-dihydro-1H-isoquinolin-2-ylmethyl]-phenyl}-ethyl)-3-ethyl-urea]	76
CNC(=O)N[C@@H](C)c1ccc(CN2CCc3cc(OCC4CC4(F)F)ccc3C2)cc1 (stereo partly shown) [Example 5.002]	59
C[C@H](NC(=O)N(C)C)c1ccc(CN2CCc3cc(OCC4CC4(F)F)ccc3C2)cc1 (stereo partly shown) [Example 5.003]	20
C[C@H](NC(=O)N(C)C)c1ccc(CN2Cc3ccc(OCC4CC4(F)F)cc3C(F)C2)cc1 (stereo partly shown) [Example 5.004]	17
C[C@H](NC(=O)N(C)C)c1ccc(CN2Cc3ccc(OCC4CC4)cc3C(O)C2)cc1 (stereo partly shown) [Example 5.005]	155
CCNC(=O)N[C@@H](C)c1ccc(CN2Cc3ccc(OCC4CC4)cc3C(O)C2)cc1 (stereo partly shown) [Example 5.006]	872
CCNC(=O)N[C@@H](C)c1ccc(CN2Cc3ccc(OCC4CC4)cc3C(F)C2)cc1 (stereo partly shown) [Example 5.007]	49
COC(=O)N[C@@H](C)c1ccc(CN2Cc3ccc(OCC4CC4)cc3C(O)C2)cc1 (stereo partly shown) [Example 5.008]	369
COC(=O)N[C@@H](C)c1ccc(CN2Cc3ccc(OCC4CC4)cc3C(F)C2)cc1 (stereo partly shown) [Example 5.009]	116

Continued, values first:

IC50 [nM]	Structure (SMILES)
173	C[C@H](NC(=O)N(C)C)c1ccc(CN2Cc3ccc(OCC4CC4(F)F)cc3C(O)C2)cc1 (stereo partly shown) [Example 6.002]
192	COc1cccc2c1CCN(Cc1ccc([C@H](C)NC(C)=O)cc1)C2 [Example 7.001, N-{(S)-1-[4-(5-Methoxy-3,4-dihydro-1H-isoquinolin-2-ylmethyl)-phenyl]-ethyl}-acetamide]
104	CC(=O)N[C@@H](C)c1ccc(CN2CCc3c(cccc3C(F)(F)F)C2)cc1 [Example 7.002]
26	CC(=O)N[C@@H](C)c1ccc(CN2CCc3cc(OCC4CC4(F)F)ccc3C2)cc1 (stereo partly shown) [Example 7.003]
148	CC(=O)N[C@@H](C)c1ccc(CN2CCc3c(Br)cccc3C2)cc1 [Example 7.004]
58	CC(=O)N[C@@H](C)c1ccc(CN2CCc3c(cccc3OC3CCC3)C2)cc1 [Example 7.005]
551	C[C@H](NC(=O)C1CC1)c1ccc(CN2CC(=O)c3cc(OCC4CC4(F)F)ccc3C2)cc1 (stereo partly shown) [Example 7.006]
185	CCC(=O)N[C@@H](C)c1ccc(CN2CC(=O)c3cc(OCC4CC4(F)F)ccc3C2)cc1 (stereo partly shown) [Example 7.007]
50	CC(=O)N[C@@H](C)c1ccc(CN2CC(=O)c3cc(OCC4CC4(F)F)ccc3C2)cc1 (stereo partly shown) [Example 7.009]
715	CC(=O)N[C@@H](C)c1ccc(CN2CCc3c(cccc3C(=O)NCc3ccccc3)C2)cc1 [Example 8.001, 2-[4-((S)-1-Acetylamino-ethyl)-benzyl]-1,2,3,4-tetrahydro-isoquinoline-5-carboxylic acid benzylamide]
190	COC(=O)C1c2ccc(OCC3CC3)cc2CCN1Cc1ccc([C@H](C)NC(C)=O)cc1 (stereo partly drawn) [Example 9.000, 2-[4-((S)-1-Acetylamino-ethyl)-benzyl]-6-cyclopropylmethoxy-1,2,3,4-tetrahydro-isoquinoline-1-carboxylic acid methyl ester]
